Laboratory results from patent publication US4061626A, “Somatostatin analogs and intermediates thereto” (Eli Lilly and Company, priority 1976, dated 1977).
Where a SMILES comes first, the peptide text is derived from it.

How the values were obtained:
[1] = system: gastric HCl secretion; assay: in vivo inhibition of gastric acid secretion in dogs with chronic gastric fistula and Heidenhain pouch; conditions: infused at 3 μg/kg-hr. for one hour, secretion induced by C-terminal tetrapeptide of gastrin 0.5 μg/kg-hr
Method: D-Lys^4 -somatostatin and D-Ala^2,D-Lys^4 -somatostatin also were tested in dogs for their in vivo inhibition of gastric acid secretion. In dogs with chronic gastric fistula and Heidenhain pouch, gastric HCl secretion was induced by infusion of the C-terminal tetrapeptide of gastrin at 0.5 μg/kg-hr. One dog served as control, receiving only the tetrapeptide. Another dog received the tetrapeptide and somatostatin while the test compound was administered to other dogs in place of somatostatin. After one hour of steady state secretion of HCl, somatostatin or the test compound was infused at 3 μg/kg-hr. for one hour. Collection of gastric acid samples was continued for an additional 1.5 hours at 15 minute intervals.

[2] = system: pancreatic secretion; assay: inhibition of secretin-induced pancreatic secretion in dogs with pancreatic and total gastric fistula; format: in vivo; conditions: 3 μg/kg-hr for one hour, secretin 0.5 unit/kg-hr.
Method: D-Ala^2,D-Lys^4 -somatostatin was also shown to inhibit pancreatic secretion. In three dogs having both pancreatic and total gastric fistula, secretion from the pancreas was induced by infusion of secretin at 0.5 unit/kg-hr. and gastric HCl by infusion of tetragastrin at 0.5 μg/kg-hr. After a steady response was established, administration of the test compound was begun. One of the dogs was retained as control, and, of the remaining two dogs, one received somatostatin and the other D-Ala^2,D-Lys^4 -somatostatin, each for one hour at 3 μg/kg-hr.Peak inhibitory effects expressed as percent changes over control are as follows: […]

[3] = system: growth hormone secretion; assay: release of growth hormone in sodium pentobarbital-stimulated rats; format: in vivo, Spraque-Dawley rats
Method: D-Lys^4 -somatostatin and D-Ala^2,D-Lys^4 -somatostatin also were tested for their activity with respect to the release of growth hormone. The procedure which was employed is carried out using mature male Spraque-Dawley rats (Laboratory Supply Company, Indianapolis, Indiana). The test is a modification of the method of P. Brazeau, W. Vale, and R. Guilleman, Endocrinology, 94 184 (1974). In this assay, two sets, one comprising five groups of eight rats each and the other comprising three groups of eight rats each were employed. First, sodium pentobarbital was administered to all of the rats of a particular set to stimulate growth hormone secretion. In the set comprising five groups of eight rats, one group is the control group and received only saline. Two of the groups received somatostatin, one at 2 μg./rat, subcutaneously, and the other at 50 μg./rat, subcutaneously. The other two groups received D-Ala^2,D-Lys^4 -somatostatin, one at 2 μg./rat, subcutaneously and the other at 50 μg./rat, subcutaneously. The degree of inhibition of serum growth hormone concentration then was determined with respect to the control group, and the relative activities of D-Ala^2,D-Lys^4 -somatostatin and somatostatin itself were compared.
The other set of three groups of eight rats each was treated in the same manner as above, with the exception the D-Lys^4 -somatostatin was used in place of D-Ala^2,D-Lys^4 -somatostatin, and the test was carried out only at a 50 μg./rat dose level. The D-Lys^4 -somatostatin stimulated growth hormone secretion by about 8 percent over control, while somatostatin in this set inhibited growth hormone secretion by 70 percent over control.

[4] = system: glucagon and insulin secretion; assay: in vivo inhibition of glucagon and insulin secretion upon stimulation with L-alanine; parameters: species or system mongrel dogs; conditions: dogs
Method: D-Ala^2,D-Lys^4 -somatostatin was tested for its in vivo activity in inhibiting glucagon and insulin secretion upon stimulation with L-alanine. Normal mongrel dogs of either sex were fasted overnight. Control blood samples were obtained, and then an intravenous infusion of saline, somatostatin, or D-Ala^2,D-Lys^4 -somatostatin was started. After 30 minutes, L-alanine additionally was administered intravenously for a period of 15 minutes. The infusion of saline, somatostatin, or D-Ala^2,D-Lys^4 -somatostatin was continued for 15 minutes after completion of the alanine infusion. The total dose of somatostatin or D-Ala^2,D-Lys^4 -somatostatin which was infused is 200-500 μg./dog (0.20-0.30 μg/kg./minute), and the total dose of L-alanine infused was 1 mmol/kg.

[5] = system: glucagon secretion; assay: in vivo inhibition of glucagon secretion upon stimulation with insulin; parameters: species or system mongrel dogs; conditions: dogs; insulin 0.3 units/kg. i.v.; infusion 0.07-0.13 μg/kg/min. (D-Lys^4 at 0.150, D-Ala^2,D-Lys^4 at 0.114 μg/kg/min.)
Method: D-Lys^4 -somatostatin and D-Ala^2,D-Lys^4 -somatostatin also were evaluated for in vivo activity in inhibiting glucagon secretion upon stimulation with insulin. Normal mongrel dogs of either sex were fasted overnight. After control blood samples had been obtained, an intravenous infusion of saline, somatostatin, D-Lys^4 -somatostatin, or D-Ala^2,D-Lys^4 -somatostatin was commenced. After 15 minutes, insulin, 0.3 units/kg., was injected intravenously. The infusion of saline, somatostatin, or the test compound was continued for two hours, and blood samples were obtained at various intervals throughout the test. The total dose of the somatostatin or test compound ranged from 120-260 μg./dog (0.07-0.13 μg/kg/min.). Administration of insulin produced a reduction in the blood glucose concentration and an increase in serum glucagon concentration.

[6] = intravenous infusion 0.20-0.30 μg/kg./minute (D-Ala^2,D-Lys^4 -somatostatin at 0.253 μg/kg/min.), L-alanine 1 mmol/kg

Row | Structure (SMILES) | inhibition of gastric acid secretion relative to the control [1] [%] | Pancreatic Secretion HCO3^-, peak inhibitory effect as percent change over control [2] [%] | Pancreatic Secretion Protein, peak inhibitory effect as percent change over control [2] [%] | Pancreatic Secretion Volume, peak inhibitory effect as percent change over control [2] [%] | stimulation of growth hormone secretion over control ([3]; 2 μg./rat, subcutaneously, set of five groups) [%] | stimulation of growth hormone secretion over control ([3]; 50 μg./rat, subcutaneously, set of five groups) [%] | effect on basal serum insulin concentration ([4]; intravenous infusion 0.20-0.30 μg/kg./minute (D-Ala^2,D-Lys^4 -somatostatin at 0.253 μg/kg/min.)) | effect on the rise in serum glucagon concentration during infusion of L-alanine [4, 6] | effect on the rise in serum insulin concentration during infusion of L-alanine [4, 6] | effect on basal secretion of glucagon ([4]; intravenous infusion at 0.253 μg/kg/min.) | effect on the increase in serum glucagon concentration produced by insulin administration [5] | stimulation of growth hormone secretion over control ([3]; 50 μg./rat, set of three groups)
1 | C[C@H](N)C(=O)N[C@H](C)C(=O)N[C@H]1CSSC[C@@H](C(=O)O)NC(=O)[C@H](CO)NC(=O)[C@H]([C@@H](C)O)NC(=O)[C@H](Cc2ccccc2)NC(=O)[C@H]([C@@H](C)O)NC(=O)[C@H](CCCCN)NC(=O)[C@H](Cc2c[nH]c3ccccc23)NC(=O)[C@H](Cc2ccccc2)NC(=O)[C@H](Cc2ccccc2)NC(=O)[C@H](CC(N)=O)NC(=O)[C@@H](CCCCN)NC1=O [D-Ala^2,D-Lys^4 -somatostatin, D-Ala^2, D-Lys^4 -somatostatin] (HELM PEPTIDE1{A.[dA].C.[dK].N.F.F.W.K.T.F.T.S.C}$PEPTIDE1,PEPTIDE1,3:R3-14:R3$$$V2.0) | 50.9 | -68 | -55.4 | -61 | 114 | ~200 | slight decrease | partial inhibition | partial inhibition | slight decrease | neither inhibited | 
2 | C[C@H](N)C(=O)NCC(=O)N[C@H]1CSSC[C@@H](C(=O)O)NC(=O)[C@H](CO)NC(=O)[C@H]([C@@H](C)O)NC(=O)[C@H](Cc2ccccc2)NC(=O)[C@H]([C@@H](C)O)NC(=O)[C@H](CCCCN)NC(=O)[C@H](Cc2c[nH]c3ccccc23)NC(=O)[C@H](Cc2ccccc2)NC(=O)[C@H](Cc2ccccc2)NC(=O)[C@H](CC(N)=O)NC(=O)[C@@H](CCCCN)NC1=O [D-Lys^4 -somatostatin] | 87.3 |  |  |  |  |  |  |  |  |  | neither inhibited | about 8%
